From PubChem BioAssay AID1204 (EPA DSSTox, 2008)
Inconclusive results are not listed. The source made the active and inactive calls.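 The calls were made as follows: active = relative estrogen receptor binding affinity above 1E-5, where estradiol scores 100; inconclusive = weak binder, under half inhibition at top dose, or affinity below 1E-5; inactive = no binding seen, affinity zero.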

Test system: estrogen receptor (rat uterine cytosol)
Experiment: DSSTox (NCTRER) National Center for Toxicological Research Estrogen Receptor Binding Database;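 as to relative binding affinity: ratio of estradiol IC50 over compound IC50 times 100 so estradiol equals 100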
Details: rat uterine cytosol ER competitive binding, RBA; for relative binding affinity: hits give high values
From the text: Researchers within FDA's National Center for Toxicological Research (NCTR) generated a database of experimental estrogen receptor binding results for the express purpose of developing improved QSAR models to predict ER binding affinities.The NCTR ER database is a structurally diverse set of natural, synthetic, and environmental estrogens covering most known estrogenic classes and spanning a wide range of biological activity. It represents the largest published ER binding database of same-assay results generated in a single laboratory. […] Information on the percent purity and purchasing source for all chemicals are not included in the DSSTox SDF, but can be obtained from the original NCTR ER Source database and Main Citations listed below. The main citation (Fang et al., 2001) surveys the NCTR ER database from a chemical class based, structure-activity relationship (SAR) perspective. Qualitative SAR characteristics of the NCTR ER database are discussed and a set of general hierarchical rules for identifying potential estrogens are presented. The DSSTox NCTRER SDF augments the original NCTR ER database with chemical class and SAR information abstracted from Fang et al. (2001). The DSSTox SDF file supplements the measured ER relative binding affinity for each chemical (ER_RBA) with chemical class assignment to one of 6 major estrogenic classes further divided into 20 subclasses (ChemClass_ERB), along with a qualitative activity measure, ActivityCategory_ER_RBA. A brief narrative SAR rationale pertaining to ER RBA patterns observed by Fang et al. (2001) for each of the 20 subclasses within the database are provided in the field, ActivityCategory_Rationale_ChemClass_ERB. The original NCTR ER database, from which the expanded DSSTox NCTRER was formed, is contained within a larger Endocrine Disruptor Knowledge Base (EDKB) accessible from the FDA Source Website. That website provides online access to a relational database comprised of in vitro and in vivo experimental data for about 2000 natural and synthetic compounds, much of this extracted from the literature and representing testing in many laboratories. Data are included for biological assays that measure estrogenic and androgenic activity. Estrogenic endpoints include in vitro assays for estrogen receptor competitive binding affinity, cell proliferation, and reporter-gene assays, and in vivo assays for uterotrophic activity (i.e., uterine weight gain and vaginal cornification). The database also contains a bibliography of over 1200 citations, many of which include abstracts.
Estrogen receptor relative binding affinity is determined using a competitive receptor binding assay as described in NCTRER Ref (Blair et al., 2000). Briefly, a chemical competes with radiolabeled E2 (i.e., estradiol) for binding to the ER in rat uterine cytosol and the concentration of chemical that causes 50% inhibition of E2 binding (i.e., IC50) is measured. The ER_RBA is calculated by dividing the IC50 of E2 (9X10-10M) by the IC50 of the competitor and multiplying by 100 (E2 RBA = 100). The validated assay tested 1nM E2 with concentrations of competitor ranging from 1nM to 1mM. The larger the ER_RBA values, the greater the binding affinity; ER_RBA > 100 means compound has greater binding affinity than natural ER ligand, E2. […] Activity Score is mapping of LOG_ER_RBA values (ER-RBA>1E-5), spanning activity range [MIN, MAX] onto Integer 20-100 Activity range, where 100 is highest potency and 20 is lowest active potency. If Activity Outcome is "active": Activity Score = 80 * INTEGER[(LOG_ER_RBA - MIN)/(MAX […] MIN)]. If Activity Outcome is "inconclusive" (i.e., slight binder): Activity Score = 5.

[1] = ChemClass_ERB: Steroids With aromatic A ring
[2] = ChemClass_ERB: Phenols Alkyloxy
[3] = ChemClass_ERB: DES Hexestrol derivatives
[4] = ChemClass_ERB: Diphenylmethanes DDTs
[5] = ChemClass_ERB: Phytoestrogens Isoflavones
[6] = ChemClass_ERB: Steroids Without aromatic A ring
[7] = ChemClass_ERB: Phenols Parabens
[8] = ChemClass_ERB: DES Triphenylethylenes
[9] = ChemClass_ERB: Diphenylmethanes Diphenolalkanes
[10] = ChemClass_ERB: Phytoestrogens Flavanones
[11] = ChemClass_ERB: Phytoestrogens Flavones

For `NCCc1ccc(O)c(O)c1`, the outcome (ChemClass_ERB: Misc) was “inactive”.

For `C[C@@]12CCC[C@H]1[C@@H]1CCc3cc(O)ccc3[C@H]1CC2`, the relative binding affinity [1] was 13.8%.

`C=CCc1ccc(O)c(OC)c1` was tested, and the outcome [2] was “inactive”.

`CCc1cccc(CC)c1N(COC)C(=O)CCl` was tested, and the outcome (ChemClass_ERB: Misc) was “inactive”.

Compound `C#C[C@]1(O)CC[C@H]2[C@@H]3CCc4cc(O)ccc4[C@H]3[C@@H](OC)C[C@@]21C` has a relative binding affinity [1] of 13.8%.

With `CCC(c1ccc(O)cc1)C(CC)c1cc(C)c(O)c(C)c1` (stereo unspecified) the relative binding affinity [3] was 8.91%.

`ClC1=C(Cl)[C@@]2(Cl)[C@@H]3[C@@H](Cl)[C@H](Cl)C[C@@H]3C1(Cl)C2(Cl)Cl` was tested, and the outcome (ChemClass_ERB: Misc) was “inactive”.

In the case of `c1ccc2c(c1)ccc1c3ccccc3ccc21`, the outcome (ChemClass_ERB: Misc) is reported as “inactive”.

With `c1ccc2c(c1)Cc1cc3ccccc3cc1-2` the outcome (ChemClass_ERB: Misc) was “inactive”.

For `CCc1c(-c2ccc(OC)cc2)c(=O)oc2cc(O)ccc12`, the relative binding affinity (ChemClass_ERB: Phytoestrogens Coumestans) was 0.891%.

`COc1ccc(C(=C(Cl)Cl)c2ccc(O)cc2)cc1` gave a relative binding affinity [4] of 0.234%.

In the case of `COc1ccc(C(=O)c2ccccc2)c(O)c1`, the outcome (ChemClass_ERB: Diphenylmethanes Benzophenones) is reported as “inactive”.

With `CCC(c1ccc(O)cc1)C(CC)c1ccc(OC)cc1` (stereo unspecified) the relative binding affinity [3] was 9.33%.

In the case of `O=c1c(-c2ccc(O)cc2)coc2cc(O)ccc12`, the relative binding affinity [5] is reported as 0.022%.

`O=C(O)COc1ccc(Cl)cc1Cl` was tested, and the outcome (ChemClass_ERB: Misc) was “inactive”.

Compound `C[C@]12CC[C@@H](O)C[C@@H]1CC[C@@H]1[C@@H]2CC[C@]2(C)[C@@H](O)CC[C@@H]12` has a relative binding affinity [6] of 0.0021%.

With `Nc1ccc(/C=C/c2ccc(N)cc2)cc1` the outcome (ChemClass_ERB: Misc) was “inactive”.

With `COc1ccc2[nH]cc(CCNC(C)=O)c2c1` the outcome (ChemClass_ERB: Misc) was “inactive”.

For `O=C(OCc1ccccc1)c1ccc(O)cc1`, the relative binding affinity [7] was 0.00288%.

Work on `COc1ccc(-c2coc3cc(O)cc(O)c3c2=O)cc1` yielded a relative binding affinity [5] of 0.0043%.

In the case of `O=C(O)/C=C/c1ccccc1`, the outcome (ChemClass_ERB: Misc) is reported as “inactive”.

For `CC(C)COC(=O)c1ccccc1C(=O)OCC(C)C`, the outcome (ChemClass_ERB: Misc) was “inactive”.

`CCOC(=O)c1ccc(O)cc1` showed a relative binding affinity [7] of 0.0006%.

With `CC/C(=C(\c1ccccc1)c1ccc(OCCN(C)C)cc1)c1ccc(O)cc1` the relative binding affinity [8] was 174%.

Compound `CC/C(=C(/CC)c1ccc(OC)cc1)c1ccc(OC)cc1` has a relative binding affinity (ChemClass_ERB: DES Derivatives) of 0.056%.

For `C(=C(c1ccccc1)c1ccccc1)c1ccccc1`, the relative binding affinity [8] was 0.00165%.

For `CC[C@@H]1c2ccc3cc(OC)ccc3c2CC[C@]1(C)C(=O)O`, the relative binding affinity (ChemClass_ERB: Misc) was 0.00181%.

In the case of `Nc1ccc(Cc2ccc(N)cc2)cc1`, the outcome (ChemClass_ERB: Misc) is reported as “inactive”.

For `Nc1ccc(Oc2ccc(N)cc2)cc1`, the outcome (ChemClass_ERB: Misc) was “inactive”.

Work on `Oc1ccc(C(c2ccc(O)cc2)C(Cl)(Cl)Cl)cc1` yielded a relative binding affinity [4] of 0.251%.

In the case of `O=C(O)COc1cc(Cl)c(Cl)cc1Cl`, the outcome (ChemClass_ERB: Misc) is reported as “inactive”.

In the case of `Oc1ccccc1Cc1ccccc1O`, the outcome [9] is reported as “inactive”.

Work on `COc1ccc2c(c1)CC[C@@H]1[C@@H]2CC[C@]2(C)[C@@H](O)[C@H](O)C[C@@H]12` yielded a relative binding affinity [1] of 0.0224%.

With `C/C=C(/C(=C/C)c1ccc(O)cc1)c1ccc(O)cc1` the relative binding affinity [3] was 37.1%.

`CCCCCCCCCc1ccc(O)cc1` was tested, and the relative binding affinity (ChemClass_ERB: Phenols Alkyl) was 0.0295%.

`C[C@]12CC[C@@H]3c4ccc(O)c(O)c4CC[C@H]3[C@@H]1CC[C@@H]2O` showed a relative binding affinity [1] of 66.1%.

In the case of `O=C1CC(c2ccccc2)Oc2ccccc21` (stereo unspecified), the outcome [10] is reported as “inactive”.

`Cc1cc(O)ccc1Cl` gave a relative binding affinity (ChemClass_ERB: Phenols Alkyl) of 0.00041%.

In the case of `Oc1ccc(C(=C(Cl)Cl)c2ccc(O)cc2)cc1`, the relative binding affinity [4] is reported as 2.63%.

With `C#C[C@]1(O)CC[C@H]2[C@@H]3CCc4cc(OC)ccc4[C@H]3CC[C@@]21C` the relative binding affinity [1] was 2.24%.

With `CC/C(=C(/CC)c1ccc(O)cc1)c1ccc(O)cc1` the relative binding affinity (ChemClass_ERB: DES Derivatives) was 398%.

`C(/C=C/c1ccccc1)=C\c1ccccc1` was tested, and the outcome (ChemClass_ERB: Misc) was “inactive”.

In the case of `C=CC1(C)OC(=O)N(c2cc(Cl)cc(Cl)c2)C1=O` (stereo unspecified), the outcome (ChemClass_ERB: Misc) is reported as “inactive”.

In the case of `Clc1ccc(C(c2ccc(Cl)cc2)C(Cl)Cl)cc1`, the outcome [4] is reported as “inactive”.

With `CC(=O)[C@H]1CC[C@H]2[C@@H]3CCC4=CC(=O)CC[C@]4(C)[C@H]3CC[C@]12C` the outcome [6] was “inactive”.

Compound `COc1cc(O)c2c(=O)c(-c3ccc(O)cc3)coc2c1` has a relative binding affinity [5] of 0.00181%.

In the case of `c1ccc2c(c1)OCCOCCOc1ccccc1OCCOCCO2`, the outcome (ChemClass_ERB: Misc) is reported as “inactive”.

`Oc1ccc(OCc2ccccc2)cc1` gave a relative binding affinity [2] of 0.00036%.

For `CCCCOC(=O)c1ccccc1C(=O)OCCCC`, the outcome (ChemClass_ERB: Misc) was “inactive”.

Work on `Oc1ccc(CCc2ccccc2)cc1` yielded a relative binding affinity [3] of 0.00204%.

In the case of `C[Si](C)(Cc1ccccc1)O[Si](C)(C)Cc1ccccc1`, the outcome (ChemClass_ERB: Misc) is reported as “inactive”.

With `CCOC(=O)c1ccccc1C(=O)OCC` the outcome (ChemClass_ERB: Misc) was “inactive”.

For `O=S(=O)(O)c1ccc2c(N=Nc3ccc(S(=O)(=O)O)c4ccccc34)c(O)c(S(=O)(=O)O)cc2c1`, the outcome (ChemClass_ERB: Misc) was “inactive”.

`O=c1c(O)c(-c2ccc(O)cc2)oc2ccc(O)cc12` gave a relative binding affinity [11] of 0.447%.

`CC(C)(c1ccccc1)c1ccc(O)cc1` showed a relative binding affinity [9] of 0.00501%.

Work on `CCCOC(=O)c1ccc(O)cc1` yielded a relative binding affinity [7] of 0.0006%.

Compound `COC(=O)c1ccc(O)cc1` has a relative binding affinity [7] of 0.00036%.

`C[C@]12CC[C@@H]3c4cc(O)c(O)cc4CC[C@H]3[C@@H]1CC[C@@H]2O` showed a relative binding affinity [1] of 29.5%.

For `Clc1ccc(-c2ccc(Cl)cc2)cc1`, the outcome (ChemClass_ERB: Biphenyls PCBs) was “inactive”.

In the case of `O=C1C[C@@H](c2ccc(O)cc2)Oc2cc(O)cc(O)c21`, the relative binding affinity [10] is reported as 0.0074%.

Work on `CC[C@@H](c1ccc2cc(O)ccc2c1)C(C)(C)C(=O)O` yielded a relative binding affinity (ChemClass_ERB: Misc) of 0.955%.

`O=C(/C=C/c1ccc(O)cc1)c1ccccc1` was tested, and the relative binding affinity (ChemClass_ERB: Phytoestrogens Chalconoids) was 0.00281%.

Compound `O=C(C(=O)c1ccc(O)cc1O)c1ccc(O)cc1O` has a relative binding affinity [3] of 0.209%.

Compound `O=c1cc(-c2ccccc2)oc2ccc(O)cc12` has a relative binding affinity [11] of 0.00038%.

Compound `Clc1ccc(C(c2ccccc2Cl)C(Cl)(Cl)Cl)cc1` (stereo unspecified) has a relative binding affinity [4] of 0.00141%.

Work on `CCC(c1ccc(O)c(O)c1)C(CC)c1ccc(O)c(O)c1` (stereo unspecified) yielded a relative binding affinity [3] of 15.5%.

Work on `O=C1CC(c2ccccc2)Oc2ccc(O)cc21` (stereo unspecified) yielded a relative binding affinity [10] of 0.00089%.

In the case of `OCc1ccccc1`, the outcome (ChemClass_ERB: Misc) is reported as “inactive”.

In the case of `COc1ccc([C@@H]2CC(=O)c3c(O)cc(O)cc3O2)cc1O`, the outcome [10] is reported as “inactive”.

With `O=S1(=O)OC(c2ccc(O)cc2)(c2ccc(O)cc2)c2ccccc21` the relative binding affinity [9] was 0.00056%.

`C[C@]12CC[C@@H]3c4ccc(O)cc4CC[C@H]3[C@@H]1CCC2=O` was tested, and the relative binding affinity [1] was 7.24%.

For `CCCCCCCCOC(=O)c1ccccc1C(=O)OCCCCCCCC`, the outcome (ChemClass_ERB: Misc) was “inactive”.

`Oc1ccc(CCc2ccc(O)cc2)cc1` gave a relative binding affinity [3] of 0.0363%.

In the case of `Nc1nc2ncc(CNc3ccc(C(=O)N[C@@H](CCC(=O)O)C(=O)O)cc3)nc2c(=O)[nH]1`, the outcome (ChemClass_ERB: Misc) is reported as “inactive”.

For `CCCCCCCOc1ccc(O)cc1`, the relative binding affinity [2] was 0.00131%.

`O=c1cc(-c2ccccc2)oc2ccccc12` was tested, and the outcome [11] was “inactive”.
